In patent publication US6495604B1, “Cycloalkene derivatives, process for producing the same, and use” (Takeda Chemical Industries, Ltd., priority 1998, dated 2002):

Columns and labels:
[1] = system: NO production by RAW264.7 cell; assay: NO production-inhibiting effect in RAW264.7 cells (nitrite ion by DAN fluorescence); type: cell-based, mouse; settings: LPS 5 ng/ml + interferon gamma 1 U/ml, nitrite ion in culture supernatant after overnight incubation
Protocol: Mouse macrophage cell line RAW264.7 was used as an iNOS-inducible cell and a test compound was examined for its % inhibition of NO production. The test compound was dissolved at 10 mM in N,N-dimethylformamide and diluted with an RPMI-1640 medium at the concentration of 0.1 mM. The concentration was further adjusted using the medium so that a final concentration ranging from 10 μM to 10 nM could be obtained by a 10-fold serial dilution and the test compound was added to a culture medium. On the day before the experiment, the cell was adjusted at 5×10^5/ml in an RPMI-1640 medium supplemented with 10% inactivated fetal calf serum and inoculated to a 96-well microplate at 1×10^5 cells/0.2 ml per well. After incubating at 37° C. under an atmosphere of 5% CO2/95% air overnight, the test compound adjusted as described above was added and then LPS and interferon gamma were added at the final concentrations of 5 ng/ml and 1 U/ml, respectively. After further incubating overnight, culture supernatants were examined for the concentration of nitrite ion (stable metabolite of NO) which was used as an index for the NO production. The nitrite ion concentration was determined by adding 25 μl of 20 μg/ml of 2,3-diaminonaphthalene (DAN) to 50 μl of the culture supernatant, followed by incubating at room temperature for 10 minutes, followed by adding 25 μl of 0.5 N NaOH, followed by determining a fluorescence at 450 nm (excitation wavelength: 365 nm). An IC50 represents the concentration of the test compound which inhibits 50% of the NO production.

[2] = system: IL-1α production, RAW264.7; assay: Cytokine production-inhibiting effect in RAW264.7: IL-1α; type: cell-based; settings: Mus musculus, LPS 1.0 μg/ml in the absence of interferon gamma
Protocol: Using mouse macrophage cell line RAW264.7, a test compound was examined for its % inhibition of a cytokine production. The test compound was dissolved at 10 mM in N,N-dimethylformamide and dilutedwith an RPMI-1640 medium at the concentration of 0.1 mM. The concentration was further adjusted using the medium so that a final concentration ranging from 10 μM to 10 nM could be obtained by a 10-fold serial dilution and the test compound was added to a culture medium. On the day before the experiment, the cell was adjusted at 5×10^5/ml in an RPMI-1640 medium supplemented with 10% inactivated fetal calf serum and inoculated to a 96-well microplate at 1×10^5 cells/0.2 ml per well. After incubating at 37° C. under an atmosphere of 5% CO2/95% air overnight, the test compound adjusted as described above was added and then LPS and interferon-gamma were added at the final concentrations of 5 ng/ml and 1 U/ml, respectively. After further incubating overnight, culture supernatants were examined for the concentrations of TNF-α and IL-6. IL-1α was determined using 1.0 μg/ml of LPS in the absence of interferon gamma under otherwise similar conditions. Each cytokine was determined using an assay kit manufactured by Amersham. An IC50 represents the concentration of the test compound which inhibits 50% of the cytokine production.

[3] = system: blood nitric oxide concentration (NOx); assay: Effect on increase in blood nitric oxide level (LPS-treated mice); type: in vivo, BALB/c mice; settings: Mus musculus; 30 mg/kg orally 1 hour before LPS 10 mg/kg i.p.; serum nitrite+nitrate 6 hours after LPS; vs control group; read-out: Inhibition % of NO in blood
serum TNF-α = assay: Effect on increase in blood cytokine level (LPS-treated mice): TNF-α; type: in vivo, BALB/c mice; settings: Mus musculus; 30 mg/kg orally 1 hour before LPS 10 mg/kg i.p.; serum 1 hour after LPS; vs control group
Protocol: (§1) As a result of a defense mechanism against an infection or an immune abnormality, various in vivo cytokines are produced. Accordingly, an experimental animal model was used to examine the effect of a test compound on the increase in the blood cytokine level.
(§2) Female BALB/c mice (6 weeks old) were purchased and acclimatized for 1 week and assigned to the groups in each of which 6 to 8 animals were included. In a treatment group, 30 mg/kg of a test compound suspended in a 0.5% aqueous solution of methyl cellulose was given orally. In a control group, the vehicle was given similarly. After 1 hour, LPS (10 mg/kg) was given intraperitoneally to each animal in the treatment and control groups, and the blood was taken 1 hour after the LPS administration and examined for the serum concentrations of TNF-α. IL-1α, IL-1β and IL-6 concentrations were determined using the serum from the blood taken 6 hours after the LPS administration. Each cytokine was determined using an assay kit manufactured by Amersham.

serum IL-1α = assay: Effect on increase in blood cytokine level (LPS-treated mice): IL-1α; type: in vivo, BALB/c mice; settings: Mus musculus; 30 mg/kg orally 1 hour before LPS 10 mg/kg i.p.; serum 6 hours after LPS; vs control group
Protocol: as §1, §2

serum IL-1β = assay: Effect on increase in blood cytokine level (LPS-treated mice): IL-1β; type: in vivo, BALB/c mice; settings: Mus musculus; 30 mg/kg orally 1 hour before LPS 10 mg/kg i.p.; serum 6 hours after LPS; vs control group
Protocol: as §1, §2

serum IL-6 = assay: Effect on increase in blood cytokine level (LPS-treated mice): IL-6; type: in vivo, BALB/c mice; settings: Mus musculus; 30 mg/kg orally 1 hour before LPS 10 mg/kg i.p.; serum 6 hours after LPS; vs control group
Protocol: as §1, §2

[4] = Mus musculus, RAW264.7, RAW264.7

| IC50 [1, 4] [µM] | IC50 [2] [µM] | IC50 ([1]; RAW264.7) [µM] | Structure (SMILES) | inhibition at 30 mg/kg [3] [%] | inhibition at 30 mg/kg (serum TNF-α) [%] | inhibition at 30 mg/kg (serum IL-1α) [%] | inhibition at 30 mg/kg (serum IL-1β) [%] | inhibition at 30 mg/kg (serum IL-6) [%] |
| --- | --- | --- | --- | --- | --- | --- | --- | --- |
| 0.12 to 0.32 | 0.39 | – | CCOC(=O)C1=CCCCC1S(=O)(=O)Nc1ccc(Cl)cc1F (stereo not shown) [Compound 1, ethyl 6-[N-(4-chloro-2-fluorophenyl)sulfamoyl]-1-cyclohexene-1-carboxylate] | 76 | 98 | 97 | 73 | 89 |
| – | – | 0.013 to 0.039 | CCOC(=O)C1=CCCCC1S(=O)(=O)Nc1ccc(F)cc1F (stereo not shown) [Compound 3, ethyl 6-[N-(2,4-difluorophenyl)sulfamoyl]-1-cyclohexene-1-carboxylate] | 90 | – | – | – | – |
| 1.1 | – | – | CCOC(=O)C1=CCCCC1S(=O)(=O)N(C)c1ccc(Cl)cc1F (stereo not shown) [Compound 2, ethyl 6-[N-(4-chloro-2-fluorophenyl)-N-methylsulfamoyl]-1-cyclohexene-1-carboxylate] | – | – | – | – | – |
